The target in this experiment is T1, aryl hydrocarbon receptor (AHR) (Homo sapiens, UniProt P35869).
T1 sequence (P35869 11-848): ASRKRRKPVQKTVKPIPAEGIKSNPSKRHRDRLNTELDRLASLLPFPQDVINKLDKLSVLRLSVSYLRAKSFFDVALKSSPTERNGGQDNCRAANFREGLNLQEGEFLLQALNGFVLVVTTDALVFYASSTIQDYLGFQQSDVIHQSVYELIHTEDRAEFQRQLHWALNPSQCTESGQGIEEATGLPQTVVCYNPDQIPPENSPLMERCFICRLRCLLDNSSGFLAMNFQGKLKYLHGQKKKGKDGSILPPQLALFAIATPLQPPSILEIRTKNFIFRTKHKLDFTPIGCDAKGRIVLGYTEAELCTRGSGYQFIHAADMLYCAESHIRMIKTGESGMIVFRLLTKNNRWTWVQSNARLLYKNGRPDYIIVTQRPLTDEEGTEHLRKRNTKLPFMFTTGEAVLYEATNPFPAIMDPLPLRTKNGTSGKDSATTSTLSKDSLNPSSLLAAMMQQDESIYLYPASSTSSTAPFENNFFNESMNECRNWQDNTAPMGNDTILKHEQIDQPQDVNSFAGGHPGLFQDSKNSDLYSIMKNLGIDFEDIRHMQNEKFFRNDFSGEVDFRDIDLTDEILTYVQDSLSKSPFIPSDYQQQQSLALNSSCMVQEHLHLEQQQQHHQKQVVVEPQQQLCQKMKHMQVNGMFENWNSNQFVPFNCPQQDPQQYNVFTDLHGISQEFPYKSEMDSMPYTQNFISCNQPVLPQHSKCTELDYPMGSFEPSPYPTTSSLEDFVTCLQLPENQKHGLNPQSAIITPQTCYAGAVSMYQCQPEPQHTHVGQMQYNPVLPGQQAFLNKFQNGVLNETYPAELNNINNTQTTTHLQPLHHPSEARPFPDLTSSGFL
The experiment in a line: Inhibition of AHR target gene CYP1B1 expression (RT-qPCR) in MOLM-14 cells, endogenous AHR; functional readout only. The format is cell-based. (In general: Quantitative PCR measures a nucleic acid by following its amplification.)

Drawing on paper PMC12722994, “The aryl hydrocarbon receptor is associated with monocytic AML and innate immune resistance reversible with an AHR inhibitor” (Frontiers in Immunology, 2025), this text covers IC50 for one substance.

By IC50 is commonly meant the concentration at which inhibition is half-maximal. For IK-364, the IC50 came out at 5 nM.
